Measurements taken from the NIST ThermoML archive (doi:10.1021/je800224k).

Conditions: Liquid

CCCCCCCC[n+]1ccn(C)c1.F[P-](F)(F)(F)(F)F [1-octyl-3-methylimidazolium hexafluorophosphate]
Conditions | mass density [kg/m3]
293.15 K, 101.33 kPa, Vibrating tube method | 1240.8
312.8 K, 10000 kPa, Bellows volumetry | 1230
312.8 K, 20000 kPa, Bellows volumetry | 1236
312.8 K, 30000 kPa, Bellows volumetry | 1241
312.8 K, 40000 kPa, Bellows volumetry | 1247
312.8 K, 50000 kPa, Bellows volumetry | 1252
312.8 K, 60000 kPa, Bellows volumetry | 1257
312.8 K, 70000 kPa, Bellows volumetry | 1261
312.8 K, 80000 kPa, Bellows volumetry | 1266
312.8 K, 90000 kPa, Bellows volumetry | 1270
312.8 K, 100000 kPa, Bellows volumetry | 1275
312.8 K, 110000 kPa, Bellows volumetry | 1279
312.8 K, 120000 kPa, Bellows volumetry | 1283
312.8 K, 130000 kPa, Bellows volumetry | 1287
312.8 K, 140000 kPa, Bellows volumetry | 1291
312.8 K, 150000 kPa, Bellows volumetry | 1294
312.8 K, 160000 kPa, Bellows volumetry | 1298
312.8 K, 170000 kPa, Bellows volumetry | 1302
312.8 K, 180000 kPa, Bellows volumetry | 1305
312.8 K, 190000 kPa, Bellows volumetry | 1309
312.8 K, 200000 kPa, Bellows volumetry | 1312
313.15 K, 101.33 kPa, Vibrating tube method | 1225
332.6 K, 10000 kPa, Bellows volumetry | 1215
332.6 K, 20000 kPa, Bellows volumetry | 1221
332.6 K, 30000 kPa, Bellows volumetry | 1227
332.6 K, 40000 kPa, Bellows volumetry | 1233
332.6 K, 50000 kPa, Bellows volumetry | 1238
332.6 K, 60000 kPa, Bellows volumetry | 1243
332.6 K, 70000 kPa, Bellows volumetry | 1248
332.6 K, 80000 kPa, Bellows volumetry | 1253
332.6 K, 90000 kPa, Bellows volumetry | 1257
332.6 K, 100000 kPa, Bellows volumetry | 1262
332.6 K, 110000 kPa, Bellows volumetry | 1266
332.6 K, 120000 kPa, Bellows volumetry | 1270
332.6 K, 130000 kPa, Bellows volumetry | 1274
332.6 K, 140000 kPa, Bellows volumetry | 1278
332.6 K, 150000 kPa, Bellows volumetry | 1282
332.6 K, 160000 kPa, Bellows volumetry | 1286
332.6 K, 170000 kPa, Bellows volumetry | 1290
332.6 K, 180000 kPa, Bellows volumetry | 1293
332.6 K, 190000 kPa, Bellows volumetry | 1297
332.6 K, 200000 kPa, Bellows volumetry | 1300
333.15 K, 101.33 kPa, Vibrating tube method | 1210
352.6 K, 10000 kPa, Bellows volumetry | 1200
352.6 K, 20000 kPa, Bellows volumetry | 1207
352.6 K, 30000 kPa, Bellows volumetry | 1213
352.6 K, 40000 kPa, Bellows volumetry | 1219
352.6 K, 50000 kPa, Bellows volumetry | 1224
352.6 K, 60000 kPa, Bellows volumetry | 1230
352.6 K, 70000 kPa, Bellows volumetry | 1235
352.6 K, 80000 kPa, Bellows volumetry | 1240
352.6 K, 90000 kPa, Bellows volumetry | 1245
352.6 K, 100000 kPa, Bellows volumetry | 1249
352.6 K, 110000 kPa, Bellows volumetry | 1254
352.6 K, 120000 kPa, Bellows volumetry | 1258
352.6 K, 130000 kPa, Bellows volumetry | 1262
352.6 K, 140000 kPa, Bellows volumetry | 1266
352.6 K, 150000 kPa, Bellows volumetry | 1270
352.6 K, 160000 kPa, Bellows volumetry | 1274
352.6 K, 170000 kPa, Bellows volumetry | 1278
352.6 K, 180000 kPa, Bellows volumetry | 1282
352.6 K, 190000 kPa, Bellows volumetry | 1286
352.6 K, 200000 kPa, Bellows volumetry | 1289
353.15 K, 101.33 kPa, Vibrating tube method | 1195.2
372.8 K, 10000 kPa, Bellows volumetry | 1186
372.8 K, 20000 kPa, Bellows volumetry | 1193
372.8 K, 30000 kPa, Bellows volumetry | 1199
372.8 K, 40000 kPa, Bellows volumetry | 1205
372.8 K, 50000 kPa, Bellows volumetry | 1211
372.8 K, 60000 kPa, Bellows volumetry | 1217
372.8 K, 70000 kPa, Bellows volumetry | 1222
372.8 K, 80000 kPa, Bellows volumetry | 1227
372.8 K, 90000 kPa, Bellows volumetry | 1232
372.8 K, 100000 kPa, Bellows volumetry | 1237
372.8 K, 110000 kPa, Bellows volumetry | 1242
372.8 K, 120000 kPa, Bellows volumetry | 1246
372.8 K, 130000 kPa, Bellows volumetry | 1250
372.8 K, 140000 kPa, Bellows volumetry | 1255
372.8 K, 150000 kPa, Bellows volumetry | 1259
372.8 K, 160000 kPa, Bellows volumetry | 1263
372.8 K, 170000 kPa, Bellows volumetry | 1267
372.8 K, 180000 kPa, Bellows volumetry | 1271
372.8 K, 190000 kPa, Bellows volumetry | 1274
372.8 K, 200000 kPa, Bellows volumetry | 1278
392.8 K, 10000 kPa, Bellows volumetry | 1171
392.8 K, 20000 kPa, Bellows volumetry | 1179
392.8 K, 30000 kPa, Bellows volumetry | 1186
392.8 K, 40000 kPa, Bellows volumetry | 1192
392.8 K, 50000 kPa, Bellows volumetry | 1198
392.8 K, 60000 kPa, Bellows volumetry | 1204
392.8 K, 70000 kPa, Bellows volumetry | 1209
392.8 K, 80000 kPa, Bellows volumetry | 1215
392.8 K, 90000 kPa, Bellows volumetry | 1220
392.8 K, 100000 kPa, Bellows volumetry | 1225
392.8 K, 110000 kPa, Bellows volumetry | 1230
392.8 K, 120000 kPa, Bellows volumetry | 1235
392.8 K, 130000 kPa, Bellows volumetry | 1239
392.8 K, 140000 kPa, Bellows volumetry | 1243
392.8 K, 150000 kPa, Bellows volumetry | 1248
392.8 K, 160000 kPa, Bellows volumetry | 1252
392.8 K, 170000 kPa, Bellows volumetry | 1256
392.8 K, 180000 kPa, Bellows volumetry | 1260
392.8 K, 190000 kPa, Bellows volumetry | 1264
392.8 K, 200000 kPa, Bellows volumetry | 1268
413 K, 10000 kPa, Bellows volumetry | 1157
413 K, 20000 kPa, Bellows volumetry | 1165
413 K, 30000 kPa, Bellows volumetry | 1172
413 K, 40000 kPa, Bellows volumetry | 1179
413 K, 50000 kPa, Bellows volumetry | 1185
413 K, 60000 kPa, Bellows volumetry | 1191
413 K, 70000 kPa, Bellows volumetry | 1197
413 K, 80000 kPa, Bellows volumetry | 1203
413 K, 90000 kPa, Bellows volumetry | 1208
413 K, 100000 kPa, Bellows volumetry | 1213
413 K, 110000 kPa, Bellows volumetry | 1218
413 K, 120000 kPa, Bellows volumetry | 1223
413 K, 130000 kPa, Bellows volumetry | 1228
413 K, 140000 kPa, Bellows volumetry | 1232
413 K, 150000 kPa, Bellows volumetry | 1237
413 K, 160000 kPa, Bellows volumetry | 1241
413 K, 170000 kPa, Bellows volumetry | 1245
413 K, 180000 kPa, Bellows volumetry | 1249
413 K, 190000 kPa, Bellows volumetry | 1253
413 K, 200000 kPa, Bellows volumetry | 1257
432.7 K, 10000 kPa, Bellows volumetry | 1144
432.7 K, 20000 kPa, Bellows volumetry | 1152
432.7 K, 30000 kPa, Bellows volumetry | 1159
432.7 K, 40000 kPa, Bellows volumetry | 1166
432.7 K, 50000 kPa, Bellows volumetry | 1173
432.7 K, 60000 kPa, Bellows volumetry | 1179
432.7 K, 70000 kPa, Bellows volumetry | 1185
432.7 K, 80000 kPa, Bellows volumetry | 1191
432.7 K, 90000 kPa, Bellows volumetry | 1197
432.7 K, 100000 kPa, Bellows volumetry | 1202
432.7 K, 110000 kPa, Bellows volumetry | 1207
432.7 K, 120000 kPa, Bellows volumetry | 1212
432.7 K, 130000 kPa, Bellows volumetry | 1217
432.7 K, 140000 kPa, Bellows volumetry | 1222
432.7 K, 150000 kPa, Bellows volumetry | 1226
432.7 K, 160000 kPa, Bellows volumetry | 1231
432.7 K, 170000 kPa, Bellows volumetry | 1235
432.7 K, 180000 kPa, Bellows volumetry | 1239
432.7 K, 190000 kPa, Bellows volumetry | 1243
432.7 K, 200000 kPa, Bellows volumetry | 1247
452.5 K, 10000 kPa, Bellows volumetry | 1130
452.5 K, 20000 kPa, Bellows volumetry | 1138
452.5 K, 30000 kPa, Bellows volumetry | 1146
452.5 K, 40000 kPa, Bellows volumetry | 1153
452.5 K, 50000 kPa, Bellows volumetry | 1160
452.5 K, 60000 kPa, Bellows volumetry | 1167
452.5 K, 70000 kPa, Bellows volumetry | 1173
452.5 K, 80000 kPa, Bellows volumetry | 1179
452.5 K, 90000 kPa, Bellows volumetry | 1185
452.5 K, 100000 kPa, Bellows volumetry | 1191
452.5 K, 110000 kPa, Bellows volumetry | 1196
452.5 K, 120000 kPa, Bellows volumetry | 1201
452.5 K, 130000 kPa, Bellows volumetry | 1206
452.5 K, 140000 kPa, Bellows volumetry | 1211
452.5 K, 150000 kPa, Bellows volumetry | 1216
452.5 K, 160000 kPa, Bellows volumetry | 1220
452.5 K, 170000 kPa, Bellows volumetry | 1225
452.5 K, 180000 kPa, Bellows volumetry | 1229
452.5 K, 190000 kPa, Bellows volumetry | 1233
452.5 K, 200000 kPa, Bellows volumetry | 1237
472.3 K, 10000 kPa, Bellows volumetry | 1116
472.3 K, 20000 kPa, Bellows volumetry | 1125
472.3 K, 30000 kPa, Bellows volumetry | 1133
472.3 K, 40000 kPa, Bellows volumetry | 1141
472.3 K, 50000 kPa, Bellows volumetry | 1148
472.3 K, 60000 kPa, Bellows volumetry | 1155
472.3 K, 70000 kPa, Bellows volumetry | 1162
472.3 K, 80000 kPa, Bellows volumetry | 1168
472.3 K, 90000 kPa, Bellows volumetry | 1174
472.3 K, 100000 kPa, Bellows volumetry | 1180
472.3 K, 110000 kPa, Bellows volumetry | 1185
472.3 K, 120000 kPa, Bellows volumetry | 1191
472.3 K, 130000 kPa, Bellows volumetry | 1196
472.3 K, 140000 kPa, Bellows volumetry | 1201
472.3 K, 150000 kPa, Bellows volumetry | 1205
472.3 K, 160000 kPa, Bellows volumetry | 1210
472.3 K, 170000 kPa, Bellows volumetry | 1215
472.3 K, 180000 kPa, Bellows volumetry | 1219
472.3 K, 190000 kPa, Bellows volumetry | 1223
472.3 K, 200000 kPa, Bellows volumetry | 1228
